Measurements reported in patent US20060293360A1, “4-(2-Phenyloxyphenyl)-piperidine or-1,2,3,6-tetrahydropyridine derivatives as serotonin reuptake inhibitors” (H. Lundbeck A/S, priority 2003, published 2006).

Columns and labels:
[1] = biological target: T1, norepinephrine uptake ([3H]-noradrenaline uptake into rat cortical synaptosomes) (Rattus norvegicus, UniProt Q9WTR4); assay: [3H]Noradrenaline uptake into rat cortical synaptosomes; type: biochemical; conditions: result in words
T1 construct: Fresh cortex from male Wistar rats (125-225 g) are homogenized in 0.4M sucrose; from tissue; host or cells: synaptosomal fraction of fresh cortex from male Wistar rats
Procedure: Measurements of [^3 H]Noradrenaline Uptake into Rat Cortical Synaptosomes.
Fresh cortex from male Wistar rats (125-225 g) are homogenized in 0.4M sucrose with a glass/teflon homogenizer. The homogenate is centrifuged at 600×g for 10 min at 4° C. The pellet is discarded and the supernatant is centrifuged at 20.000×g for 55 min. The final pellet is homogenized (20 sec) in this assay buffer (6 mg original tissue/mL=[…]). Test compounds (or buffer) and 10 nM [^3H]-noradrenaline are added to deep 96 well plates and shaken briefly. Composition of assay buffer: 123 mM NaCl, 4.82 mM 1Cl, 0.973 mM CaCl2, 1.12 mM MgSO4, 12.66 MM Na2HPO4, 2.97 MM NaH2PO4, 0.162 mM EDTA, 10 mM glucose and 1 mM ascorbic acid. Buffer is oxygenated with 95% 02/5% C02 for 10 min at 37° C. and pH is adjusted 7.4. The incubation is started by adding tissue to a final assay volume of 1 ml. After 15 min incubation with radioligand at 37° C., samples are filtered directly on Unifilter GF/C glass fiber filters (soaked for 1 hour in 0.1% polyethylenimie) under vacuum and immediately washed with 3×1 mL assay buffer. Non-specific uptake is determined using talsupram ([…] final concentration). Duloxetine is included as reference in all experiments as dose-response curve.

[2] = biological target: T2, serotonin reuptake ([3H]-5-HT uptake into rat cortical synaptosomes) (Rattus norvegicus, UniProt P31652); assay: [3H]-5-HT uptake into rat cortical synaptosomes; type: biochemical; conditions: result in words
T2 construct: Whole brains from male Wistar rats (125-225 g), excluding cerebellum, are homogenized; from tissue; host or cells: synaptosomal fraction of whole brain (excluding cerebellum) from male Wistar rats
Procedure: Measurements of [^3H]-5-HT Uptake into Rat Cortical Synaptosomes.
Whole brains from male Wistar rats (125-225 g), excluding cerebellum, are homogenized in 0.32 M sucrose supplemented with 1 mM nialamid with a glass/teflon homogenizer. The homogenate is centrifuged at 600×g for 10 min at 4° C. The pellet is discarded and the supernatant is centrifuged at 20.000×g for 55 min. The final pellet is homogenized (20 sec) in this assay buffer (0.5 mg original tissue/well). Test compounds (or buffer) and 10 nM [^3H]-5-HT are added to 96 well plates and shaken briefly. 10 Composition of assay buffer: 123 mM NaCl, 4.82 mM KCl, 0.973 mM CaCl2, 1.12 mM MgSO4, 12.66 mM Na2HPO4, 2.97 mM NaH2PO4, 0.162 mM EDTA, 10 mM glucose and 1 mM ascorbic acid. Buffer is oxygenated with 95% 02/5% C02 for 10 min at 37° C. and pH is adjusted 7.4. The incubation is started by adding tissue to a final assay volume of 0.2 mL. After 15 min incubation with radioligand at 37° C., samples are filtered 15 directly on Unifilter GF/C glass fiber filters (soaked for 1 hour in 0.1% polyethylenimine) under vacuum and immediately washed with 3×0.2 ml assay buffer. Non-specific uptake is determined using citalopram (10 μM final concentration). Citalopram is included as reference in all experiments as dose-response curve.

T1 sequence (Q9WTR4 1-597): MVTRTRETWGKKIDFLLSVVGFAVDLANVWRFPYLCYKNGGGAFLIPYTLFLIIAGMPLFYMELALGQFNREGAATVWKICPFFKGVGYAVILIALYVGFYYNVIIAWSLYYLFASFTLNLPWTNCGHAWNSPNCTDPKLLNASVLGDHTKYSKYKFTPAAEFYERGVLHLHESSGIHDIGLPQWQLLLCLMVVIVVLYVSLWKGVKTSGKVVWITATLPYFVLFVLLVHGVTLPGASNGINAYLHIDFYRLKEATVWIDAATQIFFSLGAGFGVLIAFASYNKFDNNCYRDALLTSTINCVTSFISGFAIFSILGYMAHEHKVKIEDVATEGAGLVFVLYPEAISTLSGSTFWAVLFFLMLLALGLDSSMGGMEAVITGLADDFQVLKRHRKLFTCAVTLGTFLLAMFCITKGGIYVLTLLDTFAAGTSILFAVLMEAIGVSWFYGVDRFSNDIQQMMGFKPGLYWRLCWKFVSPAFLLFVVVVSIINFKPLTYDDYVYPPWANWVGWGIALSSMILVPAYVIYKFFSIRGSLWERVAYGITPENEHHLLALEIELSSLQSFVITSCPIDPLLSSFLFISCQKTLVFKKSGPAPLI
T2 sequence (P31652 whole entry): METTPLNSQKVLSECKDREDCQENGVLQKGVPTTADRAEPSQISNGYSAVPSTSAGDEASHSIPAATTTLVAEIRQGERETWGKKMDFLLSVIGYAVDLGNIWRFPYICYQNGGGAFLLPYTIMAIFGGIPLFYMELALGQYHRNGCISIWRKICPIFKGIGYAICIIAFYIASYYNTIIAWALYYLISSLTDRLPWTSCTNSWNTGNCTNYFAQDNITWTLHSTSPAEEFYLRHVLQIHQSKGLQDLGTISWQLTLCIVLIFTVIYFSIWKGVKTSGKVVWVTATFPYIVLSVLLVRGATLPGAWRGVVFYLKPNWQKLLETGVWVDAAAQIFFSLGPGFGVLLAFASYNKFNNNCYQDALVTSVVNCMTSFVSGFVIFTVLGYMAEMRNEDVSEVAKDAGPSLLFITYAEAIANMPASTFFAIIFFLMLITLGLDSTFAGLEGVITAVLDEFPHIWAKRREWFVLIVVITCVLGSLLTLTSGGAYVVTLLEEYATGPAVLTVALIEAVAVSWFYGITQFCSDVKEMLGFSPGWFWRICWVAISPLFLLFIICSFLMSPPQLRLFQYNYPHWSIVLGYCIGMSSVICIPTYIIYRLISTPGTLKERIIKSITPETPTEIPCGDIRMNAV

Compound | norepinephrine uptake inhibition [1] | serotonin reuptake inhibition [2]
COc1ccc(Oc2ccccc2C2=CCNCC2)cc1 [1f, 4-[2-(4-Methoxyphenoxy)phenyl]-1,2,3,6-tetrahydropyridine] | did not show norepinephrine uptake inhibition | did show serotonin reuptake inhibition
Fc1ccc(Oc2ccccc2C2=CCNCC2)cc1 [1d, 4-[2-(4-Fluorophenoxy)phenyl]-1,2,3,6-tetrahydropyridine] | did not show norepinephrine uptake inhibition | did show serotonin reuptake inhibition
Cc1cc(F)ccc1Oc1ccccc1C1=CCNCC1 [1c, 4-[2-(4-Fluoro-2-methylphenoxy)phenyl]-1,2,3,6-tetrahydropyridine] | did not show norepinephrine uptake inhibition | did show serotonin reuptake inhibition
Cc1cc(Oc2ccccc2C2CCNCC2)c(C)c(C)c1C [3i, 4-[2-(2,3,4,5-Tetramethyl-phenoxy)-phenyl]-piperidine] | did not show norepinephrine uptake inhibition | did show serotonin reuptake inhibition
Clc1ccc(Oc2ccccc2C2=CCNCC2)cc1 [1b, 4-[2-(4-Chlorophenoxy)phenyl]-1,2,3,6-tetrahydropyridine] | did not show norepinephrine uptake inhibition | did show serotonin reuptake inhibition
Cc1ccc(Oc2ccccc2C2CCNCC2)cc1C [3h, 4-[2-(3,4-Dimethyl-phenoxy)-phenyl]-piperidine] | did not show norepinephrine uptake inhibition | did show serotonin reuptake inhibition
Cc1ccc(Oc2ccccc2C2=CCNCC2)c(C)c1 [1a, 4-[2-(2,4-Dimethylphenoxy)phenyl]-1,2,3,6-tetrahydropyridine] | did not show norepinephrine uptake inhibition | did show serotonin reuptake inhibition
Cc1ccc(Oc2ccccc2C2=CCNCC2)cc1 [1e, 4-[2-(4-Methylphenoxy)phenyl]-1,2,3,6-tetrahydropyridine] | did not show norepinephrine uptake inhibition | did show serotonin reuptake inhibition
COc1ccc(Oc2ccccc2C2CCNCC2)cc1OC [3m, 4-[2-(3,4-Dimethoxy-phenoxy)-phenyl]-piperidine] | did not show norepinephrine uptake inhibition | did show serotonin reuptake inhibition
